Earlier results, collected in paper PMC8198792, “Prediction of Anticancer Peptides with High Efficacy and Low Toxicity by Hybrid Model Based on 3D Structure of Peptides” (International Journal of Molecular Sciences, 2021).
Like-named read-outs stand apart in the source and are kept apart here.

System: cancer cell lines
Set-up: method as in 6 sources, ref CancerPPD [45] and SATPdb ||| ref CancerPPD/SATPdb ||| ref CancerPPD, SATPdb, Swissprot (PDB) ||| ref CancerPPD/SATPdb/Swissprot(PDB) ||| ref CancerPPD / SATPdb ||| ...
Conditions: cited from earlier work
Excerpt: Supplement ijms-22-05630-s001.zip/ACPs(seguence).xlsx, sheet "D1" | column: Activity || Supplement ijms-22-05630-s001.zip/ACPs(seguence).xlsx, sheet "D2" | column: Activity || Supplement ijms-22-05630-s001.zip/ACPs(seguence).xlsx, sheet "D3" | column: Activity || (+ 2 further places)

[1] = ACPs dataset D1, 1 = ACP (positive), 0 = non-ACP (negative), label taken from databases, ref CancerPPD [45] and SATPdb
[2] = ACPs dataset D4 (sheet "D4"), label 1 = ACP, experimentally validated ACPs, ref CancerPPD [45] and SATPdb
[3] = ACPs dataset D5 (sheet "D5"), label 1 = ACP (positive set), sequences with CancerPPD/SATPdb ID, ref CancerPPD, SATPdb
[4] = ACPs dataset sheet D2, 1 = ACP (CancerPPD/SATPdb ID), 0 = non-ACP (Swissprot/PDB ID), ref CancerPPD, SATPdb, Swissprot (PDB)
[5] = ACPs dataset D1, label 1 = ACP, 0 = non-ACP (non-anticancer AMPs from SATPdb), ref CancerPPD/SATPdb
[6] = ACPs dataset D4 (sheet "D4"), label 1 = ACP (CancerPPD ID), 0 = non-ACP (non-anticancer AMP, SATPdb ID), ref CancerPPD [45] and SATPdb
[7] = ACPs dataset D5 (sheet "D5"), label 1 = ACP (positive set), 0 = non-ACP (negative set), ref CancerPPD [45] and SATPdb
[8] = ACPs dataset D4 (sheet "D4"), label 1 = ACP, 0 = non-ACP, ref CancerPPD / SATPdb
[9] = ACPs dataset D3 (supplement sheet "D3"), 1 = ACP, 0 = non-ACP, ref CancerPPD [45] and SATPdb
[10] = ACPs dataset D3 (sheet "D3"), label 1 = ACP, 0 = non-ACP, ref CancerPPD/SATPdb
[11] = ACPs dataset D5, sheet "D5", label 1 = ACP, 0 = non-ACP, ref CancerPPD [45] and SATPdb
[12] = ACPs dataset D2 (supplement ACPs(seguence).xlsx, sheet D2), dataset label 1/0 (ACP / non-ACP), entries identified by Swissprot(PDB ID), ref CancerPPD/SATPdb/Swissprot(PDB)

Row | Substance | Activity [1] | Activity [2] | Activity [3] | Activity [4] | Activity [6] | also measured
1 | NVLLSPLSVATALSALSLGAEQRTES [satpdb18073] | 1 | 1 | 1 | 1 |  | 
2 | ACYCRIPACLAGERRYGTCFYMGRVWAFCC [satpdb12594] |  |  |  |  | 0 | Activity [5]: 0
3 | FLSLIPHAIN AVSAIAKHN [2JQ0 NMR - A 1-19] |  |  |  | 0 |  | Activity [7]: 0
4 | EGVRNHVTCRINRGFCVPIRCPGRTRQIGTCFGPRIKCCRSW [satpdb13124] |  |  |  |  |  | Activity [5]: 0; Activity [8]: 0
5 | KTCENLADTFRGPCFATSNC [compound 4449] | 1 | 1 | 1 | 1 |  | 
6 | GFLDTFKNLALNAAKSAGVSVLNSLSCKLFKTC [satpdb12796] |  |  |  |  |  | Activity [5]: 0; Activity [8]: 0
7 | TITLSTCAILSKPLGNNGYLCTVTKECMPSSCN [satpdb12698] |  |  |  |  | 0 | Activity [5]: 0
8 | GPWERCTAQCGGGIQARRR [satpdb29089] | 1 | 1 | 1 | 1 |  | 
9 | GLFVGLAKVAAHNNPAIAEHFQA [compound 4390] | 1 | 1 | 1 | 1 |  | 
10 | GFHDHGPCDPPSHK [satpdb16441] | 1 | 1 | 1 | 1 |  | 
11 | KWKSFlKTFKSlKKTVLHTLLKAISS [compound 3770] |  |  |  |  | 1 | Activity [9]: 1; Activity [7]: 1
12 | LKLGTLVNLAKKIL [satpdb13705] |  |  |  |  |  | Activity [10]: 0; Activity [8]: 0; Activity [11]: 0
13 | IPCGESCVWIPCISGMFGCSCKDKVCYS [compound 4368] | 1 | 1 | 1 | 1 |  | 
14 | CKGRGKRCREKQRPSDKPRR [satpdb11644] | 1 | 1 | 1 | 1 |  | 
15 | ITIPPIVKNTLKKFIKGAVSALMS [satpdb11263] | 0 |  |  |  | 0 | 
16 | RPFVEMYSEIPE [satpdb28120] | 1 | 1 | 1 | 1 |  | 
17 | GVDITVIRPNH [satpdb22601] | 1 | 1 | 1 | 1 |  | 
18 | NGREACLDPEAPMVQKIVQKMLKG [satpdb14027] | 1 | 1 | 1 | 1 |  | 
19 | KWKSFLKTFKSLKKTVLHTlLKAISS [compound 3757] |  |  |  |  | 1 | Activity [9]: 1; Activity [7]: 1
20 | DKLIGSCVWGAVNYTSNCNAECKRRGYKGGHCGSFANVNCWCET [1OZZ NMR - A 1-44] |  |  |  |  |  | Activity [12]: 0; Activity [7]: 0
21 | DKLIGSCVWGAVNYTSDCNGECKRRGYKGGHCGSFANVNCWCET [1I2U NMR - A 1-44] |  |  |  |  |  | Activity [12]: 0; Activity [7]: 0

Row | Substance | Activity [1] | Activity [2] | Activity [3] | Activity [4] | Activity [6] | also measured
22 | EDGLHPRLCSC [satpdb11408] |  |  |  |  | 0 | Activity [5]: 0
23 | GLFDVIKKVAAVIGGL [compound 4066] |  |  |  |  | 1 | Activity [9]: 1; Activity [7]: 1
24 | EYHLMNGANGYLTRVNGKTVYRVTKDPVSAVFGVISNCWGSAGAGFGPQH [satpdb10230] | 0 |  |  |  | 0 | 
25 | DGRKICLDPDAPRIKKIVQKKL [satpdb12249] | 1 | 1 | 1 | 1 |  | 
26 | KWKSFIKKLTDKFLHSAKKF [satpdb12512] |  |  |  |  |  | Activity [10]: 0; Activity [8]: 0; Activity [11]: 0
27 | RRWCFRVCYRGRFCYRKCR [satpdb14798] |  |  |  |  |  | Activity [10]: 0; Activity [8]: 0; Activity [11]: 0
28 | KWKLFKKIGIGKFLHSATTF [compound 1188] |  |  |  |  | 1 | Activity [9]: 1; Activity [7]: 1
29 | GLKEIFKAGLGSLVKGIAAHVAS [satpdb14561] |  |  |  |  |  | Activity [8]: 0; Activity [11]: 0
30 | FISAIASFLGKFL [satpdb11448] |  |  |  |  | 0 | Activity [5]: 0
31 | CETWRTETTGATGQASSLLSGRLLEQKAASCHNSYIVLCIENSFMTSFSK [satpdb15843] | 1 | 1 | 1 | 1 |  | 
32 | ERRCPRILKQCKRDSDCPGECICMAHGFCG [1EWU model - I 1-30] |  |  |  | 0 |  | Activity [7]: 0
33 | GLFDIIKKIAESF [compound 1252] |  |  |  |  | 1 | Activity [9]: 1; Activity [7]: 1
34 | KILRGVAKKILRTFLRRISKDILTGKK [compound 3329] |  |  |  |  | 1 | Activity [9]: 1; Activity [7]: 1
35 | SILSTLKDVGISAIKNAGSGVLKTLLCKLNKNCEK [satpdb12439] |  |  |  |  | 0 | Activity [5]: 0
36 | LLGMIPLAISAISALSKL [compound 4453] | 1 | 1 | 1 | 1 |  | 
37 | GCVLYPWC [2M6C NMR - A 1-8] |  |  |  | 0 |  | Activity [7]: 0
38 | FLPIIASVAANVFSKIFCAISKKC [satpdb10458] | 0 |  |  |  | 0 | 
39 | LLKWLKK [satpdb13213] |  |  |  |  |  | Activity [10]: 0; Activity [8]: 0; Activity [11]: 0
40 | ILRWPWWPWRRK [compound 1880] |  |  |  |  | 1 | Activity [9]: 1; Activity [7]: 1
41 | LLKKLLKKLLKK [satpdb13272] |  |  |  |  |  | Activity [10]: 0; Activity [8]: 0; Activity [11]: 0
42 | FLPFIARLAAKVFPSIICSVTKKC [satpdb10560] | 0 |  |  |  | 0 | 

Row | Substance | Activity [1] | Activity [2] | Activity [3] | Activity [4] | Activity [6] | also measured
43 | MVAYWRQAGLSYIRYSQICAKAVRDALKTEFKANAMKTSGSTIKIVKVKKE [2W6J X-ray 3.84,I,1-51] |  |  |  |  |  | Activity [12]: 0; Activity [11]: 0
44 | PGLKGKRGDSGSPATWTTRG [satpdb10562] | 1 | 1 | 1 | 1 |  | 
45 | WKSYVRRWRSR [satpdb10329] | 0 |  |  |  | 0 | 
46 | ALWKTLLKKVLKA [satpdb10405] |  |  |  |  |  | Activity [9]: 0
47 | NYQWVPYQGRVPYPRGGLLkLLKklLKKLlKL [compound 3344] |  |  |  |  | 1 | Activity [9]: 1; Activity [7]: 1
48 | IFGAILPLAL GALKNLIK [2N0O NMR - A 1-18] |  |  |  | 0 |  | Activity [7]: 0
49 | GILLDKLKNFAKTAGKGVLQSLLNTASCKLSGQC [satpdb12360] |  |  |  |  | 0 | Activity [5]: 0
50 | GIFSLIKGAAKLITKTVAKEAGKTGLELMACKVTNQC [satpdb12414] |  |  |  |  | 0 | Activity [5]: 0
51 | SWLSKTAKKLENSAKKRISEGIAIAIQGGPR [compound 1235] | 1 | 1 | 1 | 1 |  | 
52 | GLFDVIKKVASVIKGL [compound 4075] |  |  |  |  | 1 | Activity [9]: 1; Activity [7]: 1
53 | FLGWLFKWAWK [compound 1722] |  | 1 | 1 |  |  | Activity [9]: 1
54 | GPWAPCSASCGGGSQSRS [satpdb28727] | 1 | 1 | 1 | 1 |  | 
55 | ALWKTLLKKVLKA [satpdb12593] |  |  |  |  |  | Activity [8]: 0; Activity [11]: 0
56 | ESVFSKIGNAVGPAAYWILKGLGNMSDVNQADRINRKKH [satpdb11882] |  |  |  |  | 0 | Activity [5]: 0
57 | KWKLF [compound 1209] |  |  |  |  | 1 | Activity [9]: 1; Activity [7]: 1
58 | HFLLTLVNLAKkIL [satpdb14808] |  |  |  |  |  | Activity [10]: 0; Activity [8]: 0; Activity [11]: 0
59 | KWKEFLKEFKEAKKEVLHEALKAISE [satpdb14503] |  |  |  |  |  | Activity [10]: 0; Activity [8]: 0; Activity [11]: 0
60 | GILDKLKEFGISAARGVAQSLLNTTASCKLAKTC [satpdb13132] |  |  |  |  |  | Activity [5]: 0; Activity [8]: 0
61 | RRPKGRGKRRREKQRPTDCHLCGDAVPRR [satpdb17014] | 1 | 1 | 1 | 1 |  | 
62 | ECRRLCYKQRCVTYCRGR [compound 4435] | 1 | 1 | 1 | 1 |  | 
